The text below walks through data of PubChem BioAssay (NCI).

“And” between values parts separate entries of the source, which are not always exact repeats. Equal entries are not always repeated.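 Values below derive from 48-hour exposures of cells grown in 96-well plates, with endpoints linearly interpolated between the two concentrations bracketing the appropriate inhibition level. GI50: concentration for 50% inhibition of growth. TGI: concentration producing complete growth inhibition.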 Bounds are passed on as bounds.

Among the test systems are A498 renal; DU-145 prostate; EKVX NSCLC; HS 578T breast; KM12 colon; MDA-MB-435; NCI-H226 lung; RXF 393 renal; SK-OV-3 ovarian; SR leukemia.
Test in all cases: growth of human tumour cells (NCI), 48 h

With `COc1cc(Oc2cnc3cc(N)cc(N)c3n2)cc(OC)c1OC`, the GI50 was 65.1 µM in the assay with A498 renal; 62.3 µM in the assay with DU-145 prostate; 61.4 µM in the assay on EKVX NSCLC; 37.9 µM with HS 578T breast; 24.9 µM in the assay with KM12 colon; 24.3 µM in the assay with MDA-MB-435. Besides, the GI50 in the assay with NCI-H226 lung was 45.6 µM; in the assay on RXF 393 renal, 25.4 µM; in the assay on SK-OV-3 ovarian, 91.2 µM; in the assay on SR leukemia, 14 µM. For the same compound, the TGI in the assay with A498 renal is greater than 100 µM; in the assay on DU-145 prostate it was greater than 100 µM; with EKVX NSCLC it was greater than 100 µM; with HS 578T breast, greater than 100 µM; with KM12 colon, greater than 100 µM; with MDA-MB-435 it was 59.1 µM. Moreover, the TGI was greater than 100 µM in the assay on NCI-H226 lung, 89.8 µM in the assay on RXF 393 renal, greater than 100 µM with SK-OV-3 ovarian and 37.2 µM in the assay on SR leukemia.

As to `CCCCCc1c(C)[nH]c(/C=C2\N=C(c3ccc[nH]3)C=C2Oc2ccc(OC)cc2)c1C`, the GI50 with A498 renal is 0.194 µM and 0.0304 µM; with DU-145 prostate, 0.165 µM and 0.0387 µM; with HS 578T breast, 0.15 µM and 0.0228 µM; in the assay on KM12 colon, 0.0555 µM and 0.0314 µM; with MDA-MB-435, 0.149 µM and 0.0331 µM; in the assay with NCI-H226 lung, 0.118 µM and 0.139 µM. Also, the GI50 with RXF 393 renal was 0.12 µM and 0.0294 µM; with SK-OV-3 ovarian it was 0.392 µM and 0.141 µM; in the assay with SR leukemia it was 0.0321 µM and 0.0291 µM. Moreover, the TGI in the assay on A498 renal was 1.19 µM and 0.234 µM; with DU-145 prostate, 4.38 µM and 1.52 µM; in the assay with HS 578T breast, 0.701 µM and 0.139 µM; in the assay on KM12 colon, 0.622 µM and 0.185 µM; in the assay with MDA-MB-435 it was 0.387 µM and 0.153 µM; in the assay on RXF 393 renal, 0.567 µM and 0.244 µM. For the same compound, the TGI with SK-OV-3 ovarian was 2.25 µM and 1.39 µM.

On to `COc1cc(C2CC(c3ccc(C)cc3)=NN2C(C)=O)ccc1Oc1ccnc2cc(Cl)ccc12` (configuration not stated), for which the GI50 with A498 renal was 13.1 µM; in the assay on DU-145 prostate, greater than 100 µM; in the assay with EKVX NSCLC it was greater than 100 µM; in the assay with HS 578T breast it was 2.6 µM; in the assay on KM12 colon, greater than 100 µM; with MDA-MB-435, greater than 100 µM. Moreover, the GI50 with NCI-H226 lung was 5.38 µM; with RXF 393 renal it was 3.57 µM; in the assay on SK-OV-3 ovarian it was 32.4 µM; in the assay with SR leukemia it was greater than 100 µM. Further, the TGI was 78 µM with A498 renal; greater than 100 µM in the assay on DU-145 prostate; greater than 100 µM in the assay with EKVX NSCLC; greater than 100 µM in the assay on HS 578T breast; greater than 100 µM with KM12 colon; greater than 100 µM in the assay on MDA-MB-435. Further, the TGI in the assay on NCI-H226 lung, in the assay with RXF 393 renal, with SK-OV-3 ovarian and in the assay on SR leukemia was greater than 100 µM each time.

Consider `O=C(CCCCCn1c2ccccc2c2c3c(c4c5ccccc5[nH]c4c21)C(=O)N(O)C3=O)N1CCOCC1`, for which the GI50 in the assay on A498 renal is 1.29 µM; with DU-145 prostate, 3.12 µM; in the assay with EKVX NSCLC it was 4.62 µM; with HS 578T breast, 2.78 µM; in the assay with KM12 colon, 2.14 µM; with MDA-MB-435, 2.25 µM. The GI50 is 2.58 µM in the assay on NCI-H226 lung, 1.81 µM with RXF 393 renal, 2.27 µM in the assay on SK-OV-3 ovarian and 1.12 µM in the assay with SR leukemia. The TGI in the assay on A498 renal was found to be 2.7 µM; with DU-145 prostate, 12.2 µM; in the assay with EKVX NSCLC it was 43.3 µM; in the assay with HS 578T breast, 7.95 µM; in the assay on KM12 colon it was 5.03 µM; with MDA-MB-435, 5.58 µM. The TGI in the assay with NCI-H226 lung was found to be 6.51 µM; with RXF 393 renal it was 3.37 µM; in the assay on SK-OV-3 ovarian, 5.81 µM; in the assay on SR leukemia, 5.45 µM.

Regarding `COc1ccc(CNCCN2C(=O)c3ccc4c5c(ccc(c35)C2=O)C(=O)N(CCNCc2ccc(OC)cc2)C4=O)cc1`, the GI50 in the assay with A498 renal is 0.647 µM; in the assay with DU-145 prostate, 0.468 µM; in the assay with EKVX NSCLC, 0.455 µM; with HS 578T breast it was 1.1 µM; in the assay on KM12 colon it was 0.2 µM; with MDA-MB-435, 0.189 µM. The GI50 was 0.637 µM in the assay with NCI-H226 lung, 0.225 µM with RXF 393 renal, 1.13 µM in the assay on SK-OV-3 ovarian and 0.22 µM in the assay on SR leukemia. The TGI with A498 renal was 2.02 µM; in the assay with DU-145 prostate, 1.7 µM; with EKVX NSCLC, 1.73 µM; in the assay on HS 578T breast, 4.25 µM; in the assay on KM12 colon, 0.623 µM; with MDA-MB-435 it was 0.375 µM. The TGI is 2.28 µM in the assay on NCI-H226 lung, 0.981 µM with RXF 393 renal, 2.37 µM in the assay with SK-OV-3 ovarian and 0.984 µM in the assay with SR leukemia.

For `NC(=O)NC1=NCCC(=O)N1CCc1c[nH]c2ccccc12`, the TGI with A498 renal amounted to 46.1 µM; in the assay with DU-145 prostate, 52 µM; in the assay with EKVX NSCLC it was 48.6 µM; in the assay on HS 578T breast it was 80.1 µM; with KM12 colon, 52.4 µM; in the assay on MDA-MB-435 it was 41.1 µM. Moreover, the TGI was 39.9 µM with NCI-H226 lung, 48.3 µM in the assay on RXF 393 renal, greater than 100 µM in the assay on SK-OV-3 ovarian and 57.3 µM with SR leukemia.

As for `COc1ccc(C2CC(c3cccc(Nc4ccnc5cc(Cl)ccc45)c3)=NN2c2ccccc2)cc1` (configuration not stated), the GI50 with A498 renal is 2.87 µM; in the assay with DU-145 prostate, 14 µM; with HS 578T breast it was 6.79 µM; with KM12 colon, 0.226 µM; with MDA-MB-435 it was 0.219 µM; with NCI-H226 lung, 11.3 µM. Also, the GI50 in the assay on RXF 393 renal was 8.91 µM; with SK-OV-3 ovarian, 9.62 µM; with SR leukemia it was 1.17 µM. Moreover, the TGI is 81.2 µM in the assay with A498 renal; greater than 100 µM in the assay on DU-145 prostate; 73.2 µM in the assay with HS 578T breast; 19.6 µM in the assay with KM12 colon; 2.92 µM in the assay with MDA-MB-435; 63.8 µM with NCI-H226 lung. Besides, the TGI with RXF 393 renal is 49.7 µM; in the assay with SK-OV-3 ovarian it was 76.5 µM; in the assay on SR leukemia, 8.52 µM.

On to `N=C(N)c1ccc(-c2ccc(-c3ccco3)o2)cc1`, for which the GI50 is 6.58 µM in the assay on A498 renal; 6.25 µM with DU-145 prostate; 4.82 µM in the assay on HS 578T breast; 3.16 µM in the assay with KM12 colon; 1.83 µM in the assay on MDA-MB-435; 14.4 µM in the assay on NCI-H226 lung. For the same compound, the GI50 was 4.68 µM with RXF 393 renal, 9.21 µM in the assay on SK-OV-3 ovarian and 3.17 µM in the assay on SR leukemia. In addition, the TGI was 20 µM with A498 renal; 19 µM in the assay on DU-145 prostate; 24.2 µM in the assay on HS 578T breast; 10.4 µM in the assay with KM12 colon; 4.03 µM in the assay on MDA-MB-435; 33.1 µM with NCI-H226 lung. For the same compound, the values for the TGI with RXF 393 renal, with SK-OV-3 ovarian and in the assay with SR leukemia were 18.4 µM, 21.2 µM and 10.7 µM, respectively.
